{"source": "paper PMC8399443", "about": "“Synthesis, Biological Evaluation, and In Silico Modeling of N-Substituted Quinoxaline-2-Carboxamides” (Pharmaceuticals, 2021)", "key": {"Mtb H37Ra [1]": {"system": "Mtb H37Ra", "conditions": "cited from earlier work"}, "Mtb H37Ra [2]": {"system": "Mtb H37Ra", "assay": "In vitro antimycobacterial activity, Microplate Alamar Blue Assay (MABA)", "type": "cell-based, Mycobacterium tuberculosis", "conditions": "Mycobacterium tuberculosis, H37RA, read-out: MIC Mtb H37Ra"}, "M. smegmatis": {"system": "M. smegmatis", "assay": "In vitro antimycobacterial activity, MABA", "type": "cell-based, Mycobacterium smegmatis", "conditions": "Mycolicibacterium smegmatis; MABA; read-out: MIC M. smeg"}, "M. aurum": {"system": "M. aurum", "assay": "In vitro antimycobacterial activity, MABA", "type": "cell-based, Mycobacterium aurum", "conditions": "Mycolicibacterium aurum; MABA; read-out: MIC M. aurum"}, "HepG2 cell line": {"system": "HepG2 cell line", "assay": "In vitro cytotoxicity, CellTiter 96 (MTS)", "type": "cell-based", "conditions": "Homo sapiens, read-out: HepG2 IC50"}, "S. aureus": {"system": "S. aureus", "assay": "In vitro antibacterial activity, microdilution broth (EUCAST)", "type": "cell-based", "conditions": "Staphylococcus aureus"}, "MRSA": {"system": "MRSA", "assay": "In vitro antibacterial activity, microdilution broth (EUCAST)", "type": "cell-based, Staphylococcus aureus methicillin resistant", "conditions": "Staphylococcus aureus"}, "E. faecalis": {"system": "E. faecalis", "assay": "In vitro antibacterial activity, microdilution broth (EUCAST)", "type": "cell-based", "conditions": "Enterococcus faecalis"}, "E. coli": {"system": "E. coli", "assay": "In vitro antibacterial activity, microdilution broth (EUCAST)", "type": "cell-based", "conditions": "Escherichia coli"}, "P. aeruginosa": {"system": "P. aeruginosa", "assay": "In vitro antibacterial activity, microdilution broth (EUCAST)", "type": "cell-based", "conditions": "Pseudomonas aeruginosa"}, "S. epidermidis": {"system": "S. epidermidis", "assay": "In vitro antibacterial activity, microdilution broth (EUCAST)", "type": "cell-based", "conditions": "Staphylococcus epidermidis"}, "K. pneumoniae": {"system": "K. pneumoniae", "assay": "In vitro antibacterial activity, microdilution broth (EUCAST)", "type": "cell-based", "conditions": "Klebsiella pneumoniae"}, "S. marcescens": {"system": "S. marcescens", "assay": "In vitro antibacterial activity, microdilution broth (EUCAST)", "type": "cell-based", "conditions": "Serratia marcescens"}, "C. albicans": {"system": "C. albicans", "assay": "In vitro antifungal activity, microdilution broth (EUCAST)", "type": "cell-based", "conditions": "Candida albicans"}, "C. krusei": {"system": "C. krusei", "assay": "In vitro antifungal activity, microdilution broth (EUCAST)", "type": "cell-based, Candida krusei", "conditions": "Pichia kudriavzevii"}, "C. parapsilosis": {"system": "C. parapsilosis", "assay": "In vitro antifungal activity, microdilution broth (EUCAST)", "type": "cell-based, Candida parapsilosis", "conditions": "Lodderomyces parapsilosis"}, "C. tropicalis": {"system": "C. tropicalis", "assay": "In vitro antifungal activity, microdilution broth (EUCAST)", "type": "cell-based", "conditions": "Candida tropicalis"}, "A. flavus": {"system": "A. flavus", "assay": "In vitro antifungal activity, microdilution broth (EUCAST)", "type": "cell-based", "conditions": "Aspergillus flavus"}, "L. corymbifera": {"system": "L. corymbifera", "assay": "In vitro antifungal activity, microdilution broth (EUCAST)", "type": "cell-based", "conditions": "Lichtheimia corymbifera"}, "T. interdigitale": {"system": "T. interdigitale", "assay": "In vitro antifungal activity, microdilution broth (EUCAST)", "type": "cell-based", "conditions": "Trichophyton interdigitale"}, "A. fumigatus": {"system": "A. fumigatus", "assay": "In vitro antifungal activity, microdilution broth (EUCAST)", "type": "cell-based", "conditions": "Aspergillus fumigatus"}, "[3]": {"assay": "In vitro cytotoxicity, non-cancerous cells", "type": "cell-based", "conditions": "human, HK-2 kidney cortex proximal tubule cells (non-cancerous); 24 hours incubation"}, "[4]": {"system": "human glioblastoma U-87 MG cell line", "assay": "In vitro cytotoxicity", "type": "cell-based", "conditions": "24 h, read-out: Cytotoxicity IC50 U-87 MG"}, "[5]": {"system": "human epithelial kidney cancer A498 cell line", "assay": "In vitro cytotoxicity", "type": "cell-based", "conditions": "A498, 24 h, read-out: Cytotoxicity IC50 A498"}, "[6]": {"system": "human prostate cancer PC-3 cell line", "assay": "In vitro cytotoxicity", "type": "cell-based", "conditions": "PC-3, 24 h, read-out: Cytotoxicity IC50 PC-3"}, "[7]": {"system": "human ovarian cancer SK-OV-3 cell line", "assay": "In vitro cytotoxicity", "type": "cell-based", "conditions": "SK-OV-3, 24 h, read-out: Cytotoxicity IC50 SK-OV-3"}, "[8]": {"conditions": "48 h, standards, read-out: MIC Candida albicans"}, "[9]": {"conditions": "48 h, standards, read-out: MIC Aspergillus flavus"}, "[10]": {"conditions": "48 h, standards, read-out: MIC Lichtheimia corymbifera"}, "[11]": {"conditions": "72 h, standards, read-out: MIC Trichophyton interdigitale"}, "[12]": {"conditions": "48 h, standards, read-out: MIC Aspergillus fumigatus"}}, "note": "pIC50: −log10 of the molar value. “And” between values parts separate entries of the source, which are not always exact repeats. Identical values can stand only once. Like-named read-outs stand apart in the source and are kept apart here.", "data": [{"smiles": "CC(=O)Oc1ccc(COC(=O)c2cnc3ccccc3n2)cc1", "note": "[4-acetoxybenzyl quinoxaline-2-carboxylate]", "values": [{"measurement": "MIC for Mtb H37Ra", "setting": "Mtb H37Ra [1]; Figure 2b", "value": 0.5, "unit": "µg/mL"}]}, {"smiles": "O=C(NCc1cccc2ccccc12)c1cnc2ccccc2n1", "note": "[Compound 29, N-(naphthalen-1-ylmethyl)quinoxaline-2-carboxamide]", "values": [{"measurement": "MIC", "setting": "Mtb H37Ra [2]", "value": "≥ 250 µg/mL and ≥ 798 µM"}, {"measurement": "MIC", "setting": "M. smegmatis", "value": "≥ 125 µg/mL and ≥ 399 µM"}, {"measurement": "MIC", "setting": "M. aurum", "value": "≥ 125 µg/mL and ≥ 399 µM"}, {"measurement": "pIC50", "setting": "HepG2 cell line; HepG2, cytotoxicity, 24 h incubation, CellTiter 96", "value": 4.43}, {"measurement": "MIC", "setting": "S. aureus; read-out: MIC S. aureus", "value": "≥ 500", "unit": "µM"}, {"measurement": "MIC", "setting": "MRSA; read-out: MIC MRSA", "value": "≥ 500", "unit": "µM"}, {"measurement": "MIC", "setting": "E. faecalis; read-out: MIC E. faecalis", "value": "≥ 500", "unit": "µM"}, {"measurement": "MIC", "setting": "E. coli; read-out: MIC E. coli", "value": "≥ 500", "unit": "µM"}, {"measurement": "MIC", "setting": "P. aeruginosa; read-out: MIC P. aeruginosa", "value": "≥ 500", "unit": "µM"}, {"measurement": "MIC", "setting": "S. epidermidis; read-out: MIC S. epidermidis", "value": "≥ 500", "unit": "µM"}, {"measurement": "MIC", "setting": "K. pneumoniae; read-out: MIC K. pneumoniae", "value": "≥ 500", "unit": "µM"}, {"measurement": "MIC", "setting": "S. marcescens; read-out: MIC S. marcescens", "value": "≥ 500", "unit": "µM"}, {"measurement": "MIC", "setting": "C. albicans; read-out: MIC C. albicans", "value": "≥ 500", "unit": "µM"}, {"measurement": "MIC", "setting": "C. krusei", "value": "≥ 500", "unit": "µM"}, {"measurement": "MIC", "setting": "C. parapsilosis", "value": "≥ 500", "unit": "µM"}, {"measurement": "MIC", "setting": "C. tropicalis", "value": "≥ 500", "unit": "µM"}, {"measurement": "MIC", "setting": "A. flavus; read-out: MIC A. flavus", "value": "≥ 500", "unit": "µM"}, {"measurement": "MIC", "setting": "L. corymbifera; read-out: MIC L. corymbifera", "value": "≥ 500", "unit": "µM"}, {"measurement": "MIC", "setting": "T. interdigitale; read-out: MIC T. interdigitale", "value": "≥ 500", "unit": "µM"}, {"measurement": "MIC", "setting": "A. fumigatus; read-out: MIC A. fumigatus", "value": "≥ 500", "unit": "µM"}, {"measurement": "IC50 at 24 h", "setting": "[3]", "value": "> 250", "unit": "µM"}, {"measurement": "pIC50", "setting": "[4]", "value": "< 3.60"}, {"measurement": "pIC50", "setting": "[5]", "value": "< 3.60"}, {"measurement": "pIC50", "setting": "[6]", "value": 4.16}, {"measurement": "pIC50", "setting": "[7]", "value": 4.30}]}, {"smiles": "NC(=O)c1cnccn1", "note": "[PZA, pyrazinamide, reference compound]", "values": [{"measurement": "MIC", "setting": "Mtb H37Ra [2]", "value": "≥ 500 µg/mL and ≥ 4060 µM"}, {"measurement": "MIC", "setting": "M. smegmatis", "value": "≥ 500", "unit": "µg/mL"}, {"measurement": "MIC", "setting": "M. aurum", "value": "≥ 500", "unit": "µg/mL"}, {"measurement": "pIC50", "setting": "HepG2 cell line; HepG2, 24 h", "value": "< 3.00"}, {"measurement": "MIC for Mtb H37Ra", "setting": "Mtb H37Ra [1]; acidic pH, Figure 2", "value": "< 3.91", "unit": "µg/mL"}, {"measurement": "MIC for Mtb H37Ra", "setting": "Mtb H37Ra [1]; neutral pH, Figure 2", "value": "> 500", "unit": "µg/mL"}]}, {"smiles": "C[C@@H]1[C@H](O)[C@@H](C)/C=C/C=C/C=C/C=C/C=C/C=C/C=C/[C@H](O[C@@H]2O[C@H](C)[C@@H](O)[C@H](N)[C@@H]2O)C[C@@H]2O[C@](O)(C[C@@H](O)C[C@@H](O)[C@H](O)CC[C@@H](O)C[C@@H](O)CC(=O)O[C@H]1C)C[C@H](O)[C@H]2C(=O)O", "note": "[amphotericin B]", "values": [{"measurement": "MIC", "setting": "C. albicans; [8]", "value": 0.5, "unit": "µg/mL"}, {"measurement": "MIC", "setting": "C. krusei; 48 h, standards", "value": 1, "unit": "µg/mL"}, {"measurement": "MIC", "setting": "C. parapsilosis; 48 h, standards", "value": 0.5, "unit": "µg/mL"}, {"measurement": "MIC", "setting": "C. tropicalis; 48 h, standards", "value": 1, "unit": "µg/mL"}, {"measurement": "MIC", "setting": "A. flavus; [9]", "value": 8, "unit": "µg/mL"}, {"measurement": "MIC", "setting": "L. corymbifera; [10]", "value": 0.5, "unit": "µg/mL"}, {"measurement": "MIC", "setting": "T. interdigitale; [11]", "value": 2, "unit": "µg/mL"}, {"measurement": "MIC", "setting": "A. fumigatus; [12]", "value": 1, "unit": "µg/mL"}]}, {"smiles": "CNC(C)C1CCC(N)C(OC2C(N)CC(N)C(OC3OCC(C)(O)C(NC)C3O)C2O)O1", "note": "(centres unmarked) [gentamicin]", "values": [{"measurement": "MIC", "setting": "S. aureus; 48 h, standards, read-out: MIC Staphylococcus aureus", "value": 1, "unit": "µg/mL"}, {"measurement": "MIC", "setting": "MRSA; 48 h, read-out: MIC Staphylococcus aureus methicillin resistant", "value": "16 to 32", "unit": "µg/mL"}, {"measurement": "MIC", "setting": "E. faecalis; 48 h, standards, read-out: MIC Enterococcus faecalis", "value": 8, "unit": "µg/mL"}, {"measurement": "MIC", "setting": "E. coli; 48 h, standards, read-out: MIC Escherichia coli", "value": "1 to 2", "unit": "µg/mL"}, {"measurement": "MIC", "setting": "P. aeruginosa; 48 h, standards, read-out: MIC Pseudomonas aeruginosa", "value": 0.5, "unit": "µg/mL"}, {"measurement": "MIC", "setting": "S. epidermidis; 48 h, standards, read-out: MIC Staphylococcus epidermidis", "value": "> 8", "unit": "µg/mL"}, {"measurement": "MIC", "setting": "K. pneumoniae; 48 h, standards, read-out: MIC Klebsiella pneumonia", "value": "> 8", "unit": "µg/mL"}, {"measurement": "MIC", "setting": "S. marcescens; 48 h, standards, read-out: MIC Serratia marcescens", "value": 2, "unit": "µg/mL"}]}, {"smiles": "C[C@@H](c1ncncc1F)[C@](O)(Cn1cncn1)c1ccc(F)cc1F", "note": "[voriconazole]", "values": [{"measurement": "MIC", "setting": "C. albicans; [8]", "value": "> 16", "unit": "µg/mL"}, {"measurement": "MIC", "setting": "C. krusei; 48 h, standards", "value": 0.5, "unit": "µg/mL"}, {"measurement": "MIC", "setting": "C. parapsilosis; 48 h, standards", "value": 8, "unit": "µg/mL"}, {"measurement": "MIC", "setting": "C. tropicalis; 48 h, standards", "value": "> 16", "unit": "µg/mL"}, {"measurement": "MIC", "setting": "A. flavus; [9]", "value": "> 16", "unit": "µg/mL"}, {"measurement": "MIC", "setting": "L. corymbifera; [10]", "value": "> 16", "unit": "µg/mL"}, {"measurement": "MIC", "setting": "T. interdigitale; [11]", "value": "> 16", "unit": "µg/mL"}, {"measurement": "MIC", "setting": "A. fumigatus; [12]", "value": 1, "unit": "µg/mL"}]}]}
